Patent US6740335B1, “Liposomal camptothecin formulations” (priority 1997, dated 2004)
Structures can show the parent of a compound that is named as a salt. Where two headings read alike, the source gives them in different places.

What was measured:
LS-513 (Cecum) = assay: 3H-thymidine incorporation cytotoxicity assay, LS-513; type: cell-based, human; conditions: Homo sapiens, LS-513, 42 h; read-out: Median IC50
Procedure: (§1) In vitro efficacy screening has been performed using GI147211 and liposomal formulations of GI147211. […] Standard tumor cell-based cytototoxicity assays assessing ^3H-thymidine incorporation were performed.
(§2) Tumor cells were seeded into 96-well tissue culture plates (1×10^4 cells/well)≡4 h prior to experimentation. […] Positive and negative (Tris treated) control groups were included on each assay plate. Tumor cells were then labeled with 0.25 μCi of [methyl-^3H] thymidine and incubated for 42 h under tissue culture conditions (37° C., 5% CO2, 100% relative humidity), except for C6, U251, A673 and B16-F1 cells which were incubated for 24 h. Cells were then lysed, harvested onto glass-fiber filters and unincorporated [methyl-^3H] thymidine removed by filter washing. Filters were processed for scintillation counting and cpm-^3H/well determined. […] Data are presented from multiple sets of experimentation, involving multiple liposomal formulations of GI147211.

A673 (Rhabdomyosarcoma) = assay: 3H-thymidine incorporation cytotoxicity assay, A673; type: cell-based, human; conditions: Homo sapiens, A673, 24 h; read-out: Median IC50
Procedure: as §1, §2

KB Head/Neck Tumor = assay: Xenograft efficacy at identical dose, KB; type: in vivo, nude mice; conditions: for Log 10 Cell Kill / T-C (time to reach 1,000% Tumor Volume, treated vs control): QD7 × 3; for % TGI: QD7 × 3, day 22
Procedure: (§3) In all the studies performed, subcutaneous tumors implanted on the anterior flank of nude mice were allowed to grow to an established size of 200+/−50 mm^3 prior to dosing drugs.
(§4) The xenograft models included the HT29 and SW48 human colon tumor lines, and the KB and KBV head-neck tumors. Drugs were dosed at either 6 or 9 mg/kg intravenously, on a weekly schedule for 3 consecutive weeks. In the SW48 xenograft study, the animals received a total of two cycles of therapy (6 injections), with a 10 day recovery period separating the two therapeutic courses. In the HT29 xenograft study a 12 and 14 mg/kg dose group was added.

KB Tumor Xenograft = assay: HSPC vs DSPC liposomal GI147211 repeat-dose study, KB xenograft; type: in vivo, nude mice; conditions: 14 mg/kg iv, two drug doses
From the text: On a day 1 and day 8 dose schedule and after two weeks rest the same cycle of therapy was repeated with doses delivered on day 23 and day 30.

HT-29 (Colon) = assay: 3H-thymidine incorporation cytotoxicity assay, HT-29; type: cell-based, human; conditions: Homo sapiens, HT-29, 42 h; read-out: Median IC50
Procedure: as §1, §2

[1] = system: H460 (Lung, Non-Small Cell); assay: 3H-thymidine incorporation cytotoxicity assay, H460; type: cell-based, human; conditions: Homo sapiens, NCI-H460, 42 h; read-out: Median IC50
Procedure: as §1, §2

[2] = system: KBV Head/Neck Tumor MDR +; type: in vivo
Procedure: as §3, §4

tumor cell = tumor cell cytotoxicity assays; cited from earlier work
[3] = system: DU-145 (prostate carcinoma); assay: 3H-thymidine incorporation cytotoxicity assay, DU-145; type: cell-based, human; conditions: Homo sapiens, DU-145, 42 h; read-out: Median IC50
Procedure: as §1, §2

[4] = system: KBV (oralpharyngial carcinoma, vincristine resistant phenotype); assay: 3H-thymidine incorporation cytotoxicity assay, KBV; type: cell-based, human; conditions: Homo sapiens, 42 h, read-out: Median IC50
Procedure: as §1, §2

[5] = Plasma pharmacokinetics in mice, routes of administration; type: in vivo; conditions: for Vd: read-out: Vss
Procedure: Pharmacokinetic studies were carried out on various liposomal formulations of GI147211 in rats and mice by IV bolus administration. Plasma samples were precipitated with acetonitrile and the supematant for each sample was analyzed by reverse phase HPLC using isocratic elution and monitoring fluorescence. […] Concentration values were determined for unknown samples and quality control samples based on interpolation using a linear fit of the standard samples. In each study the average plasma concentration at each time point was calculated and utilized in the pharmacokinetic analysis. Noncompartmental analysis were carried out using WinNonlin™ (Standard Edition, version 1.5 ©, Scientific Consulting, Inc.) and the following parameters were calculated: the maximum concentration extrapolated at zero time (Cmax), the area under the curve from zero to infinite time (AUC total), the terminal phase half life (t½), the clearance rate (C1), and the volume of distribution at steady state (Vss).
Animals received a 1 mg/kg dose by intravenous (I.V.) intraperatoneal (I.P.) or subcutaneous administration and plasma samples were collected over 24 hours.

[6] = system: KB (oralpharyngial carcinoma); assay: 3H-thymidine incorporation cytotoxicity assay, KB; type: cell-based, human; conditions: Homo sapiens, 42 h, read-out: Median IC50
Procedure: as §1, §2

U87-MG (Astrocytoma) = assay: 3H-thymidine incorporation cytotoxicity assay, U87-MG; type: cell-based, human; conditions: Homo sapiens, U-87 MG, 42 h, read-out: Median IC50
Procedure: as §1, §2

[7] = mouse, plasma, iv, 1 mg/kg, 1 mg/kg IV bolus
[8] = mouse, plasma, iv, 1 mg/kg, I.V.

For `CCC1(O)C(=O)OCc2c1cc1n(c2=O)Cc2c-1nc1cc3c(cc1c2CN1CCN(C)CC1)OCCO3` (stereo in doubt) [GI147211, 7-(4-methylpiperazinomethylene)-10,11-ethylenedioxy-20(S)-camptothecin dihydrochloride], the IC50 (LS-513 (Cecum)) was 4.89 ng/mL, the IC50 (A673 (Rhabdomyosarcoma)) was 0.58 ng/mL and the “Log 10 Cell Kill” value (KB Head/Neck Tumor; 6 mg/kg iv) was 0.87. For the same molecule, the “T-C (time to reach 1,000% Tumor Volume, treated vs control)” value (KB Head/Neck Tumor; 6 mg/kg iv) was 9 days, the “% TGI” value (KB Head/Neck Tumor; 6 mg/kg iv) was 54% and the “Log 10 Cell Kill” value (KB Head/Neck Tumor; 9 mg/kg iv) was 1.64. The “T-C (time to reach 1,000% Tumor Volume, treated vs control)” value (KB Head/Neck Tumor; 9 mg/kg iv) was 17 days, the “% TGI” value (KB Head/Neck Tumor; 9 mg/kg iv) was 73% and the “Cures (tumor-free animals at day 60)” value (KB Tumor Xenograft) was 0/8. For the same molecule, the “Log Cell Kill Index” value (KB Tumor Xenograft) was 0.81, the “T − C (to achieve 400% tumor volume increase)” value (KB Tumor Xenograft) was 13.4 and the “Toxic Deaths” value (KB Tumor Xenograft) was 0/8. For the same molecule, the “% TGI” value (KB Tumor Xenograft; day 18) was 77.5%, the IC50 (HT-29 (Colon)) was 0.763 ng/mL and the IC50 [1] was 3.61 ng/mL. For the same molecule, the “Log 10 Cell Kill” value ([2]; KBV, 9 mg/kg iv, QD7 × 3) was 0.125, the “T-C (time to reach 1,000% Tumor Volume, treated vs control)” value ([2]; KBV, 9 mg/kg iv, QD7 × 3) was 2 days and the “% TGI” value ([2]; KBV, 9 mg/kg iv, QD7 × 3, day 18) was 11%. For the same molecule, the “activity in the MDR+ tumor model KBV” value ([2]; identical dose and schedule) was “essentially inactive”, the “potency relative to topotecan” value (tumor cell) was 5-10 times and the IC50 [3] was 1.61 ng/mL. The IC50 [4] was 584 ng/mL, the “AUC (total)” value ([5]; 1 mg/kg IV bolus) was 140 ng·h/mL and the “AUC (total)” value ([5]; 1 mg/kg, I.P.) was 47 ng·h/mL. The “AUC (total)” value ([5]; 1 mg/kg, I.V.) was 140 ng·h/mL, the Cmax ([5]; 1 mg/kg, I.V.) was 80 ng/mL and the “AUC (total)” value ([5]; 1 mg/kg, Sub. Q) was 55 ng·h/mL. The Cmax ([5]; mouse, plasma, 1 mg/kg IV bolus, read-out: Cmax) was 80 ng/mL, the half-life ([5]; mouse, plasma, 1 mg/kg IV bolus, read-out: t½ (converted)) was 113 min and the Tmax ([5]; mouse, plasma, ip, 1 mg/kg, I.P.) was 15 min. For the same molecule, the Cmax ([5]; mouse, plasma, ip, 1 mg/kg, I.P., read-out: Cmax) was 56 ng/mL, the clearance [5, 7] was 122 mL/min/kg and the Vd [5, 7] was 17.6 L/kg. The Tmax [5, 8] was 0 min, the clearance [5, 8] was 122 mL/min/kg and the Vd [5, 8] was 17.6 L/kg. The Tmax ([5]; mouse, plasma, subcutaneous, 1 mg/kg, Sub. Q) was 15 min, the Cmax ([5]; mouse, plasma, subcutaneous, 1 mg/kg, Sub. Q, read-out: Cmax) was 42 ng/mL and the IC50 [6] was 4.31 ng/mL. It also gave an IC50 (U87-MG (Astrocytoma)) of 2.36 ng/mL.
